Laboratory results published in patent US9353082B2, “Pharmaceutical compounds” (BIAL—PORTELA & CA, S.A., priority 2008, dated 2016).

Experiments:
FAAH [1] = molecular target: T1, FAAH (Mus musculus, UniProt O08914); experiment: In vivo FAAH inhibition after oral dosing, remaining activity in liver homogenate (LVh, peripheral tissue); set-up: species or system NMRI mice; conditions: liver homogenate; for In Vivo LVh 3 mg · kg · 8 h (remaining FAAH activity): 3 mg/kg oral, low value = strong inhibitor
T1 construct: A fragment of liver, left lung lobe and brain without cerebellum were removed; from tissue; host or cells: male NMRI mice; brain (without cerebellum) and liver homogenates
T1 sequence (O08914 1-579): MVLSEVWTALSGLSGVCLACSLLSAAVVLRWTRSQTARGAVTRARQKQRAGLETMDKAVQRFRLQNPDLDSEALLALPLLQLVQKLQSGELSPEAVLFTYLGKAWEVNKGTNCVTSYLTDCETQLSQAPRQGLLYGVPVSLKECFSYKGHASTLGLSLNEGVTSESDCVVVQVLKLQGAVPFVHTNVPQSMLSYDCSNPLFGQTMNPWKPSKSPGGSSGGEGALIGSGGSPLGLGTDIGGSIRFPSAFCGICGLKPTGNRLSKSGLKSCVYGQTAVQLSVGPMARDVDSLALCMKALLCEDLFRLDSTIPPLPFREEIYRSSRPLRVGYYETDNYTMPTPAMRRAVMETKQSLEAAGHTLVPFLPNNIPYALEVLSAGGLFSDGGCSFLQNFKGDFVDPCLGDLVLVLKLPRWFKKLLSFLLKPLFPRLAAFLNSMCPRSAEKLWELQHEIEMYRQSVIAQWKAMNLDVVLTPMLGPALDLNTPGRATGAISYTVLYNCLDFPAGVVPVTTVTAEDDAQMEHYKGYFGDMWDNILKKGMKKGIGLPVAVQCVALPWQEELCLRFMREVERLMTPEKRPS
Procedure, shortened: (§1)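 Male NMRI mice, fasted overnight, got 30 or 3 mg/kg compound orally (0.5% CMC suspension or water) and were compared with vehicle controls. Brain (no cerebellum) and liver homogenates were incubated with 2 μM AEA plus 5 nM 3H-AEA at 37 °C, 10 min for brain and 7 min for liver. Remaining FAAH activity is % of vehicle after blank subtraction.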

FAAH [2] = molecular target: T1, FAAH; experiment: In vivo FAAH inhibition after oral dosing, remaining activity in brain homogenate (BRh, central nervous tissue); set-up: species or system NMRI mice; conditions: brain homogenate; for In Vivo BRh 3 mg · kg · 8 h (remaining FAAH activity): 3 mg/kg oral, low value = strong inhibitor
Procedure, shortened: as §1

FAAH [3] = molecular target: T2, FAAH (Rattus norvegicus, UniProt P97612); experiment: In vitro FAAH activity in rat brain membranes, 3H-AEA substrate, % of control; type: biochemical, Wistar rats; conditions: low value = strong inhibitor; for In Vitro FAAH activity, 100 nM: 100 nM test compound; for In Vitro FAAH activity, 10 uM: 10 uM test compound
T2 construct: Frozen brains (without cerebellum) from Wistar rats were used; from tissue; host or cells: Wistar rat brain (without cerebellum), washed membrane pellets
T2 sequence (P97612 1-579): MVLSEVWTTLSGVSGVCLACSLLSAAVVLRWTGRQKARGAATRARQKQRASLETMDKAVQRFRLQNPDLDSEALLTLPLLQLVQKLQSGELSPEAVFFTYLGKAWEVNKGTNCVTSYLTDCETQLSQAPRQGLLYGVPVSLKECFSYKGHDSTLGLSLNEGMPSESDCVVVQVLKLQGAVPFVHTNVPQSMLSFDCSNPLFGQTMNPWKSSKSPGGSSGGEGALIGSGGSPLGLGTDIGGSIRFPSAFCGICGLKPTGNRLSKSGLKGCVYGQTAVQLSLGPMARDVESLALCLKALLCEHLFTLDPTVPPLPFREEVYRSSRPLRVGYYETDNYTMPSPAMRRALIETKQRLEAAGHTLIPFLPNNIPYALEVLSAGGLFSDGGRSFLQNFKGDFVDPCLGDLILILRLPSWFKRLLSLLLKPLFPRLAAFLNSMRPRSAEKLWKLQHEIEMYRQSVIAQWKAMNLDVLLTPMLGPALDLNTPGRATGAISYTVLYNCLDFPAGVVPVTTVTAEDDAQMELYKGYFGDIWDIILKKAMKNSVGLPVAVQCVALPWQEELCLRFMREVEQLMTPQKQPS
Procedure, shortened: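 Wistar rat brain membranes (5 μg protein) preincubated 15 min at 37 °C with compound at 10 μM or 0.1 μM (0.1% DMSO), then 2 μM AEA including 3H-AEA with 0.1% BSA, Tris pH 7.6, 10 min. 3H-ethanolamine counted after charcoal stop; % of no-compound control after blank subtraction.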

| SMILES | In Vivo LVh 30 mg/kg 1 h, remaining FAAH activity (FAAH [1]) | In Vivo BRh 30 mg/kg 1 h, remaining FAAH activity (FAAH [2]) | In Vitro FAAH activity, 100 nM (FAAH [3]) | In Vitro FAAH activity, 10 uM (FAAH [3]) | In Vivo LVh 3 mg/kg 8 h, remaining FAAH activity (FAAH [1]) | In Vivo BRh 3 mg/kg 8 h, remaining FAAH activity (FAAH [2]) | In Vivo LVh 3 mg · kg · 8 h (remaining FAAH activity) (FAAH [1]) | In Vivo BRh 3 mg · kg · 8 h (remaining FAAH activity) (FAAH [2]) |
| --- | --- | --- | --- | --- | --- | --- | --- | --- |
| CN(C(=O)n1cnc(-c2ccccc2)c1)c1ccccc1 [Compound 4, N-methyl-N,4-diphenyl-1H-imidazole-1-carboxamide] | 10.6 % of control | 14.3 % of control | 83.6 % of control | 0.1 % of control |  |  |  |  |
| CN(C(=O)n1cnc(-c2ccc3ccccc3c2)c1)c1ccccc1 [Compound 14, N-methyl-4-(naphthalen-2-yl)-N-phenyl-1H-imidazole-1-carboxamide] | 77.3 % of control | 96.7 % of control | 68.3 % of control | 0 % of control |  |  |  |  |
| O=C(N1CCOCC1)n1nnc2ccccc21 [Compound 19, (1H-benzo[d][1,2,3]triazol-1-yl)(morpholino)methanone] | 41.1 % of control | 46.6 % of control | 3.1 % of control | 0.1 % of control |  |  |  |  |
| CN(C(=O)n1cnc(-c2ccc(F)cc2)c1)c1ccccc1 [Compound 29, 4-(4-fluorophenyl)-N-methyl-N-phenyl-1H-imidazole-1-carboxamide] | 17.2 % of control | 10.7 % of control | 52.5 % of control | 0 % of control |  |  |  |  |
| CN(C(=O)n1nnc2ccc(Cl)cc21)c1ccccc1 [Compound 32, 6-chloro-N-methyl-N-phenyl-1H-benzo[d][1,2,3]triazole-1-carboxamide] | 64.9 % of control | 85.9 % of control | 0.1 % of control | 0 % of control |  |  |  |  |
| CN(C(=O)n1nnc2cc(Cl)ccc21)c1ccccc1 [Compound 33, 5-chloro-N-methyl-N-phenyl-1H-benzo[d][1,2,3]triazole-1-carboxamide] | 76.7 % of control | 82.3 % of control | 6.2 % of control | 0 % of control |  |  |  |  |
| CN(C(=O)n1nnc2ccccc21)c1ccccc1 [Compound 34, N-methyl-N-phenyl-1H-benzo[d][1,2,3]triazole-1-carboxamide] | 34.3 % of control | 33.6 % of control | 0.6 % of control | 0 % of control |  |  |  |  |
| CN(C(=O)n1cnc(-c2cccc(O)c2)c1)c1ccccc1 [Compound 40, 4-(3-hydroxyphenyl)-N-methyl-N-phenyl-1H-imidazole-1-carboxamide] | 4.5 % of control | 81.5 % of control | 88.8 % of control | 0.1 % of control | 25.6 % of control | 102.8 % of control |  |  |
| O=C(N1CCN(c2ccccc2)CC1)n1nnc2ccccc21 [Compound 41, (1H-benzo[d][1,2,3]triazol-1-yl)(4-phenylpiperazin-1-yl)methanone] | 30 % of control | 87.6 % of control | 0 % of control | 0 % of control |  |  |  |  |
| O=C(N1CCC(Cc2ccccc2)CC1)n1nnc2ccccc21 [Compound 42, (1H-benzo[d][1,2,3]triazol-1-yl)(4-benzylpiperidin-1-yl)methanone] | 6.4 % of control | 8.4 % of control | 0 % of control | 0 % of control |  |  |  |  |
| O=C(N1CCN(Cc2ccc3c(c2)OCO3)CC1)n1nnc2ccccc21.O=C(O)C(=O)O [Compound 48, (1H-benzo[d][1,2,3]triazol-1-yl)(4-(benzo[d][1,3]dioxol-5-ylmethyl)piperazin-1-yl)methanone oxalate] | 20.1 % of control | 21.8 % of control | 0.1 % of control |  |  |  |  |  |
| O=C(N1CCN(c2ccccn2)CC1)n1nnc2ccccc21 [Compound 49, (1H-benzo[d][1,2,3]triazol-1-yl)(4-(pyridin-2-yl)piperazin-1-yl)methanone] | 14.9 % of control | 16.9 % of control | 0.1 % of control |  |  |  |  |  |
| O=C(N1CCc2ccccc2C1)n1nnc2ccccc21 [Compound 50, (1H-benzo[d][1,2,3]triazol-1-yl)(3,4-dihydroisoquinolin-2(1H)-yl)methanone] | 7.8 % of control | 32.6 % of control | 0 % of control |  |  |  |  |  |
| O=C(N1CCCc2ccccc21)n1cnc(-c2cccc(O)c2)c1 [Compound 51, (3,4-dihydroquinolin-1(2H)-yl)(4-(3-hydroxyphenyl)-1H-imidazol-1-yl)methanone] |  |  | 100.8 % of control |  | 132.3 % of control | 130.4 % of control |  |  |
| CN(C(=O)n1cnc(-c2ccc(O)c(C(N)=O)c2)c1)C1CCOCC1 [Compound no. 513, 4-(3-carbamoyl-4-hydroxyphenyl)-N-methyl-N-(tetrahydro-2H-pyran-4-yl)-1H-imidazole-1-carboxamide] |  |  |  |  |  |  | 14.4 % of control | 90.3 % of control |
| CCCN1CCC(N(C)C(=O)n2cnc(-c3ccc[n+]([O-])c3)c2)CC1 [Compound no. 519, 3-(1-(methyl(1-propylpiperidin-4-yl)carbamoyl)-1H-imidazol-4-yl)pyridine 1-oxide] |  |  |  |  |  |  | 4.4 % of control | 82 % of control |
| CN(C(=O)n1cnc(-c2cccnc2)c1)C1CCN(S(C)(=O)=O)CC1 [Compound no. 533, N-methyl-N-(1-(methylsulfonyl)piperidin-4-yl)-4-(pyridin-3-yl)-1H-imidazole-1-carboxamide] |  |  |  |  |  |  | 0.2 % of control | 12 % of control |
| CCN1CCC(N(C)C(=O)n2cnc(-c3ccc(O)c(F)c3)c2)CC1 [Compound no. 536, N-(1-ethylpiperidin-4-yl)-4-(3-fluoro-4-hydroxyphenyl)-N-methyl-1H-imidazole-1-carboxamide] |  |  |  |  |  |  | 18.3 % of control | 74.6 % of control |
| COc1ccc(-c2cn(C(=O)N(C)C3CCN(CCO)CC3)cn2)cc1F [Compound no. 540, 4-(3-fluoro-4-methoxyphenyl)-N-(1-(2-hydroxyethyl)piperidin-4-yl)-N-methyl-1H-imidazole-1-carboxamide] |  |  |  |  |  |  | 33.7 % of control | 89.7 % of control |
